In ChEMBL document CHEMBL6078722, “Structure-based development of N-Arylindole derivatives as Pks13 inhibitors against Mycobacterium tuberculosis” (Eur J Med Chem, 2025):
≈ marks a conversion by molar mass, not a printed value. Calls of active or inactive are those of the source. No cut-off for these calls is given here.

Tested on: Mycobacterium tuberculosis
Experiment: Antimicrobial activity against Mycobacterium tuberculosis H37Rv by MABA
Format: functional
Settings: not given

Row | Compound | MIC90 [µM]
1 | CC(=O)c1cn(-c2ccc(Br)s2)c2ccc(O)c(CN3CCCCC3)c12 | 0.58 (≈ 0.251 µg/mL)
2 | Oc1ccc2c(c(-c3nnco3)cn2-c2ccc(Br)cc2)c1CN1CC2(COC2)C1 | 1 (≈ 0.467 µg/mL)
3 | CC(=O)c1cn(-c2ccc(Br)s2)c2ccc(O)c(CN3CCC3)c12 | 0.62 (≈ 0.251 µg/mL)
4 | CC(=O)c1cn(-c2ccc(Br)cc2)c2ccc(O)c(CN3CCC3)c12 | 0.08 (≈ 0.0319 µg/mL)
5 | Oc1ccc2c(c(-c3nnco3)cn2-c2ccc(Br)cc2)c1CN1CCC1 | 0.07 (≈ 0.0298 µg/mL)
6 | CC(=O)c1cn(-c2cccs2)c2ccc(O)c(CN3CCC3)c12 | 3 (≈ 0.979 µg/mL)
7 | CC(=O)c1c(C)n(-c2ccc(Br)cc2)c2ccc(O)c(CN3CCCCC3)c12 | 0.28 (≈ 0.124 µg/mL)
8 | Cc1ccc(-n2cc(-c3nnco3)c3c(CN4CCC4)c(O)ccc32)s1 | 3 (≈ 1.1 µg/mL)
9 | Oc1ccc2c(c(-c3nnco3)cn2-c2ccc(Br)cc2)c1CN1CCCC1 | 0.07 (≈ 0.0308 µg/mL)
10 | Oc1ccc2c(c(-c3nnco3)cn2-c2ccc(Br)s2)c1CN1CCC1 | 1 (≈ 0.431 µg/mL)
11 | CC(=O)c1cn(-c2ccc(Br)cc2)c2ccc(O)c(CN3CC(F)C3)c12 | 1 (≈ 0.417 µg/mL)
12 | CC(=O)c1ccc(-n2cc(C(C)=O)c3c(CN4CCC4)c(O)ccc32)s1 | 5 (≈ 1.84 µg/mL)
13 | Oc1ccc2c(c(-c3nnco3)cn2-c2ccc(Br)cc2)c1CN1CCOCC1 | 4 (≈ 1.82 µg/mL)
14 | CC(=O)c1cn(-c2ccc(Br)cc2)c2ccc(O)c(CN3CCC(F)CC3)c12 | 0.28 (≈ 0.125 µg/mL)
15 | CC(=O)c1cn(-c2ccc(Br)s2)c2ccc(O)c(CN3CC4(COC4)C3)c12 | 2 (≈ 0.895 µg/mL)
16 | Oc1ccc2c(c(-c3nnco3)cn2-c2ccc(Br)cc2)c1CN1CCCCC1 | 0.07 (≈ 0.0317 µg/mL)
17 | CC(=O)c1cn(-c2ccc(C)s2)c2ccc(O)c(CN3CCC3)c12 | 0.37 (≈ 0.126 µg/mL)
18 | Oc1ccc2c(c(-c3nnco3)cn2-c2ccc(Br)s2)c1CN1CC2(COC2)C1 | 8 (≈ 3.79 µg/mL)
19 | CC(=O)c1cn(-c2ncccn2)c2ccc(O)c(CN3CCC3)c12 | 99 (≈ 31.9 µg/mL)
20 | CNC(=O)c1cn(-c2ccc(Br)s2)c2ccc(O)c(CN3CCCCC3)c12 | 9 (≈ 4.04 µg/mL)
21 | CC(=O)c1cn(-c2cccnc2)c2ccc(O)c(CN3CCC3)c12 | 100 (≈ 32.1 µg/mL)
22 | CC(=O)c1cn(-c2ccc(Br)cc2)c2ccc(O)c(CN3CCCC3)c12 | 0.3 (≈ 0.124 µg/mL)
23 | Oc1ccc2c(c(-c3nnco3)cn2-c2ccc(Br)cc2)c1CN1CC(F)C1 | 0.56 (≈ 0.248 µg/mL)
24 | CC(=O)c1cn(-c2ccc(Br)cc2)c2ccc(O)c(CN3CCCCC3)c12 | 0.07 (≈ 0.0299 µg/mL)
25 | CC(=O)c1c(C)n(-c2ccc(C3CCNCC3)cc2)c2ccc(O)c(CN3CCCCC3)c12 | 0.14 (≈ 0.0624 µg/mL)
26 | CC(=O)c1cn(-c2ccc(-c3ccccc3)s2)c2ccc(O)c(CN3CCC3)c12 | 0.04 (≈ 0.0161 µg/mL)
27 | CC(=O)c1cn(-c2cnccn2)c2ccc(O)c(CN3CCC3)c12 | 199 (≈ 64.2 µg/mL)

Tested on: not listed separately
Experiment: Metabolic stability in human liver microsomes assessed as half life
Format: ADME, Microsome
Settings: not given

Row | Compound | half-life [h]
28 | Oc1ccc2c(c(-c3nnco3)cn2-c2ccc(Br)cc2)c1CN1CCC1 | 1.67
29 | CC(=O)c1c(C)n(-c2ccc(Br)cc2)c2ccc(O)c(CN3CCCCC3)c12 | 0.967
30 | Oc1ccc2c(c(-c3nnco3)cn2-c2ccc(Br)cc2)c1CN1CCCC1 | 1.09
31 | Oc1ccc2c(c(-c3nnco3)cn2-c2ccc(Br)cc2)c1CN1CCCCC1 | 1.1
32 | CC(=O)c1c(C)n(-c2ccc(C3CCNCC3)cc2)c2ccc(O)c(CN3CCCCC3)c12 | 0.345
33 | CC(=O)c1cn(-c2ccc(-c3ccccc3)s2)c2ccc(O)c(CN3CCC3)c12 | 2.17

Tested on: not listed separately
Experiment: Metabolic stability in human liver microsomes assessed as intrinsic clearance
Format: ADME, Microsome
Settings: read-out: CLH

Row | Compound | microsomal CLint [µL/min/mg]
34 | Oc1ccc2c(c(-c3nnco3)cn2-c2ccc(Br)cc2)c1CN1CCC1 | 13.8
35 | CC(=O)c1c(C)n(-c2ccc(Br)cc2)c2ccc(O)c(CN3CCCCC3)c12 | 23.9
36 | Oc1ccc2c(c(-c3nnco3)cn2-c2ccc(Br)cc2)c1CN1CCCC1 | 21.2
37 | Oc1ccc2c(c(-c3nnco3)cn2-c2ccc(Br)cc2)c1CN1CCCCC1 | 21
38 | CC(=O)c1c(C)n(-c2ccc(C3CCNCC3)cc2)c2ccc(O)c(CN3CCCCC3)c12 | 66.9
39 | CC(=O)c1cn(-c2ccc(-c3ccccc3)s2)c2ccc(O)c(CN3CCC3)c12 | 10.7

Tested on: not listed separately
Experiment: Metabolic stability in human liver assessed as intrinsic clearance
Format: ADME, tissue-based
Settings: read-out: CLH

Row | Compound | CLint scaled [mL/min/kg]
40 | Oc1ccc2c(c(-c3nnco3)cn2-c2ccc(Br)cc2)c1CN1CCC1 | 12.4
41 | CC(=O)c1c(C)n(-c2ccc(Br)cc2)c2ccc(O)c(CN3CCCCC3)c12 | 21.5
42 | Oc1ccc2c(c(-c3nnco3)cn2-c2ccc(Br)cc2)c1CN1CCCC1 | 19
43 | Oc1ccc2c(c(-c3nnco3)cn2-c2ccc(Br)cc2)c1CN1CCCCC1 | 18.9
44 | CC(=O)c1c(C)n(-c2ccc(C3CCNCC3)cc2)c2ccc(O)c(CN3CCCCC3)c12 | 60.2
45 | CC(=O)c1cn(-c2ccc(-c3ccccc3)s2)c2ccc(O)c(CN3CCC3)c12 | 9.6

Tested on: not listed separately
Experiment: Metabolic stability in human liver microsomes assessed as compound remaining after 60 mins in presence of NADPH
Format: ADME, Microsome
Settings: read-out: Stability

Row | Compound | remaining at 1 h [%]
46 | Oc1ccc2c(c(-c3nnco3)cn2-c2ccc(Br)cc2)c1CN1CCC1 | 61.7
47 | CC(=O)c1c(C)n(-c2ccc(Br)cc2)c2ccc(O)c(CN3CCCCC3)c12 | 47.3
48 | Oc1ccc2c(c(-c3nnco3)cn2-c2ccc(Br)cc2)c1CN1CCCC1 | 53
49 | Oc1ccc2c(c(-c3nnco3)cn2-c2ccc(Br)cc2)c1CN1CCCCC1 | 55
50 | CC(=O)c1c(C)n(-c2ccc(C3CCNCC3)cc2)c2ccc(O)c(CN3CCCCC3)c12 | 11.3
51 | CC(=O)c1cn(-c2ccc(-c3ccccc3)s2)c2ccc(O)c(CN3CCC3)c12 | 68.6

Tested on: Mycobacterium tuberculosis
Experiment: Antimicrobial activity against Mycobacterium tuberculosis H37Rv treated with compound diluted mouse serum at 1:8 to 1:64 serial dilution by MABA
Format: functional, organism-based
Settings: not given

Row | Compound | Activity
52 | Oc1ccc2c(c(-c3nnco3)cn2-c2ccc(Br)cc2)c1CN1CCC1 | Active

Tested on: Mycobacterium tuberculosis
Experiment: Antimicrobial activity against Mycobacterium tuberculosis H37Rv
Format: functional
Settings: not given

Row | Compound | MIC [µM]
53 | COc1ccc(OC)c(-c2ccc(-c3cn(CCc4ccc(C(=O)N(C)C)cc4)nn3)cn2)c1 | 0.25 (≈ 0.114 µg/mL)
54 | CCOC(=O)c1c(-c2ccccc2)oc2ccc(O)c(CN3CCC(C)CC3)c12 | 2.3 (≈ 0.905 µg/mL)

Tested on: Mycobacterium tuberculosis
Experiment: Bacteriostatic activity against Mycobacterium tuberculosis
Format: functional
Settings: not given

Row | Compound | MIC [µM]
55 | CNC(=O)c1c(-c2ccc(O)cc2)oc2ccc(O)c(CC3CCNCC3)c12 | 0.06 (≈ 0.0228 µg/mL)

Tested on: Mycobacterium tuberculosis
Experiment: Antimicrobial activity against Mycobacterium tuberculosis H37Rv incubated for 7 days by alamar blue microplate reader assay
Format: functional
Settings: 168 h, time 7 day

Row | Compound | MIC [µM]
56 | O=c1cc(-c2ccc(O)cc2)oc2ccc(O)c(CN3CCC3)c12 | 1.39 (≈ 0.449 µg/mL)
57 | O=c1cc(-c2ccccc2O)oc2ccc(O)c(CN3CCC3)c12 | 1.39 (≈ 0.449 µg/mL)

Tested on: Mycobacterium tuberculosis
Experiment: Antimicrobial activity against Mycobacterium tuberculosis H37Rv by microdilution method
Format: functional
Settings: not given

Row | Compound | MIC [µM]
58 | COC(=O)c1c(NC(=O)c2c(F)c(F)c(F)c(F)c2F)sc2c1CCCCC2 | 1 (≈ 0.419 µg/mL)
